Activity calls are given as the source filed them. The calls are words filed in the database; no cut-off is given here.

The test system of one series is Saccharomyces cerevisiae. The experiment in a line: Inhibition of Saccharomyces cerevisiae alpha-glucosidase assessed as decrease in release of p-nitrophenol at 100 uM using pNPG as substrate preincubated for 15 min followed by substrate addition and measured after 5 mins by spectrophotometric method relative to control. The conditions noted are these: time 20.0 min.

Series [1] can be described thus: Inhibition of Saccharomyces cerevisiae alpha-glucosidase assessed as decrease in release of p-nitrophenol using pNPG as substrate preincubated for 15 min followed by substrate addition and measured after 5 mins by spectrophotometric method.
The species entered for series [2] is Rattus norvegicus. The experiment in a line: Hypoglycemic activity in sucrose-treated Sprague-Dawley rat assessed as reduction in blood glucose AUC measured after 2 hrs by oral sucrose tolerance test. The series is classed as functional, organism-based.
For series [3], the species on record is Homo sapiens. The experiment in a line: Binding affinity to alpha-glucosidase (unknown origin) assessed as quenching of intrinsic tryptophan fluorescence of the enzyme by FRET assay.
For series [4], the species on record is Rattus norvegicus. Put plainly: Hypoglycemic activity in sucrose-treated Sprague-Dawley rat assessed as reduction in blood glucose level measured after 30 mins by oral sucrose tolerance test. The series is classed as functional, organism-based.
Series [5] in a line: Cytotoxicity against human HepG2 cells assessed as cell viability at 100 uM by MTT assay relative to control. The series is classed as cell-based. The following applies: read-out: Activity. In general terms: Tetrazolium assays rely on reduction of a dye to a coloured formazan, in cell work by metabolically active cells.
Series [6] is described as follows: Cytotoxicity against human L02 cells assessed as cell viability at 100 uM by MTT assay relative to control. The series is classed as cell-based. The following applies: read-out: Activity.
For series [7], the species on record is Homo sapiens. The experiment in a line: Non-competitive inhibition of alpha-glucosidase (unknown origin) assessed as decrease in Vmax with constant Km using varying levels of PNP glycoside as substrate preincubated for 30 mins followed by substrate addition and measured for 60 seconds by Lineweaver-Burk plot analysis.

Broadly, the inhibition is the relative decrease from the control value, in per cent. As to `N#Cc1c(NC(=O)N/N=C/c2ccccc2OCc2ccccc2)sc2c1CCCC2`, the inhibition in the series with Saccharomyces cerevisiae was 48%.
As usually defined, the IC50 is the concentration that gives 50% inhibition. As to `N#Cc1c(NC(=O)N/N=C/c2cc(O)cc(O)c2)sc2c1CCCC2`, in series [1], the IC50 is 11.4 µM. The inhibition in the series on Saccharomyces cerevisiae amounted to 89.5%. Moreover, the outcome in the series listed under Rattus norvegicus [2] and in the series filed under Rattus norvegicus [4] was Active. The Activity entry in the series filed under Homo sapiens [3] is “Dose-Dependent Effect”. Also, the viability at 100 µM in series [5] was determined as 93.8%; in series [6] it was 96.6%. Further, the inhibition entry in the series filed under Homo sapiens [7] is “Active”.
With `COc1ccc(/C=N/NC(=O)Nc2sc3c(c2C#N)CCCC3)cc1`, the inhibition with Saccharomyces cerevisiae worked out at 18.8%.
`CN(C)c1ccc(/C=N/NC(=O)Nc2sc3c(c2C#N)CCCC3)cc1`: the IC50 in series [1] was 46.4 µM. Further, the inhibition in the series on Saccharomyces cerevisiae came to 67.2%.
As to `Cc1cc(/C=N/NC(=O)Nc2sc3c(c2C#N)CCCC3)ccc1O`, the IC50 in series [1] amounted to 54.4 µM. Also, the inhibition with Saccharomyces cerevisiae was determined as 72.2%.
For the compound `N#Cc1c(NC(=O)N/N=C/c2ccc(N3CCCC3)cc2)sc2c1CCCC2`, the IC50 in series [1] amounted to 68.4 µM. Besides, in the series with Saccharomyces cerevisiae, the inhibition was 70.7%.
Regarding `N#Cc1c(NC(=O)N/N=C/c2ccc(N(c3ccccc3)c3ccccc3)cc2)sc2c1CCCC2`, the IC50 in series [1] amounted to 13.5 µM. For the same compound, the inhibition in the series with Saccharomyces cerevisiae stood at 89.7%.
The corresponding values for `CC(C)c1ccc(/C=N/NC(=O)Nc2sc3c(c2C#N)CCCC3)cc1` are 48.6 µM and 64.2%.
On to `CCN(CC)c1ccc(/C=N/NC(=O)Nc2sc3c(c2C#N)CCCC3)c(O)c1`, for which the IC50 in series [1] worked out at 32.5 µM. Besides, in the series on Saccharomyces cerevisiae, the inhibition came out at 64.2%.
As for `Cc1ccc(/C=N/NC(=O)Nc2sc3c(c2C#N)CCCC3)cc1C`, the IC50 in series [1] turned out to be 38.9 µM. Also, in the series with Saccharomyces cerevisiae, the inhibition turned out to be 74.8%.
Turning to `N#Cc1c(NC(=O)N/N=C/c2ccc(O)cc2)sc2c1CCCC2`, the half-maximal inhibitory concentration (IC50) in series [1] was found to be 20.7 µM. Besides, the inhibition in the series on Saccharomyces cerevisiae came out at 81.7%.
`N#Cc1c(NC(=O)N/N=C/c2ccc(Oc3ccccc3)cc2)sc2c1CCCC2`: the IC50 in series [1] worked out at 21.8 µM. In the series on Saccharomyces cerevisiae, the inhibition is 72.5%.
`Cc1cc(C)c(/C=N/NC(=O)Nc2sc3c(c2C#N)CCCC3)c(C)c1`: the concentration for half-maximal inhibition (IC50) in series [1] was 49.6 µM. Moreover, in the series with Saccharomyces cerevisiae, the inhibition turned out to be 52.3%.
The corresponding values for `N#Cc1c(NC(=O)N/N=C/c2ccc(O)cc2O)sc2c1CCCC2` are 33.8 µM and 63.1%.
On to `Cc1ccc(/C=N/NC(=O)Nc2sc3c(c2C#N)CCCC3)c(O)c1`, for which the inhibition in the series with Saccharomyces cerevisiae stood at 34.9%.
`N#Cc1c(NC(=O)N/N=C/c2ccc([N+](=O)[O-])cc2)sc2c1CCCC2`: in series [1], the IC50 was determined as 67.4 µM. Further, in the series on Saccharomyces cerevisiae, the inhibition stood at 57.6%.
`Cc1cccc(/C=N/NC(=O)Nc2sc3c(c2C#N)CCCC3)c1C`: the IC50 in series [1] turned out to be 49.2 µM. In the series on Saccharomyces cerevisiae, the inhibition worked out at 59.5%.
The corresponding values for `CCN(CC)c1ccc(/C=N/NC(=O)Nc2sc3c(c2C#N)CCCC3)cc1` are 32.1 µM and 77.3%.
For the compound `N#Cc1c(NC(=O)N/N=C/c2ccccc2O)sc2c1CCCC2`, the inhibition in the series on Saccharomyces cerevisiae amounted to 44.9%.
Still for that read-out and setting: under `COC(=O)c1ccc(/C=N/NC(=O)Nc2sc3c(c2C#N)CCCC3)cc1` stands 7.69%; under `COc1cc(/C=N/NC(=O)Nc2sc3c(c2C#N)CCCC3)cc(OC)c1`, 36.4%.
For `COc1cccc2c1C(=O)c1c(O)c3c(c(O)c1C2=O)C[C@@](O)(C(=O)CO)C[C@@H]3O[C@H]1C[C@H](N)[C@H](O)[C@H](C)O1` [DOXORUBICIN], the viability at 100 µM in series [5] and in series [6] was 4% each time.
For the compound `N#Cc1c(NC(=O)N/N=C/c2ccc(O)c(O)c2)sc2c1CCCC2`, in series [1], the IC50 was 9.26 µM. In addition, in the series on Saccharomyces cerevisiae, the inhibition was 86.3%. Besides, the result in the series filed under Rattus norvegicus [2] and in the series filed under Rattus norvegicus [4] was Active. The Activity entry in the series listed under Homo sapiens [3] is “Dose-Dependent Effect”. Further, the values for the viability at 100 µM in series [5] and in series [6] were 92.7% and 96%, respectively. Further, the inhibition entry in the series filed under Homo sapiens [7] is “Active”.
Consider `N#Cc1c(NC(=O)N/N=C/c2cccc(O)c2)sc2c1CCCC2`, for which, in the series on Saccharomyces cerevisiae, the inhibition came out at 48.4%.
Regarding `N#Cc1c(NC(=O)N/N=C/c2cccc(OCc3ccccc3)c2)sc2c1CCCC2`, the inhibition in the series on Saccharomyces cerevisiae turned out to be 40.5%.
`N#Cc1c(NC(=O)N/N=C/c2ccc(OCc3ccccc3)cc2)sc2c1CCCC2`: the 50% inhibitory concentration (IC50) in series [1] came out at 26.5 µM. Besides, the inhibition with Saccharomyces cerevisiae worked out at 66.6%.
The corresponding values for `N#Cc1c(NC(=O)N/N=C/c2ccc(O)c(O)c2O)sc2c1CCCC2` are 17.7 µM and 85.9%.
As for `COc1ccc(/C=N/NC(=O)Nc2sc3c(c2C#N)CCCC3)cc1O`, the inhibition in the series with Saccharomyces cerevisiae worked out at 27.8%.
Take `Cc1cccc(/C=N/NC(=O)Nc2sc3c(c2C#N)CCCC3)c1O`: in the series with Saccharomyces cerevisiae, the inhibition amounted to 29.5%.
`Cc1ccc(/C=N/NC(=O)Nc2sc3c(c2C#N)CCCC3)cc1`: in series [1], the half-inhibitory concentration (IC50) is 29.8 µM. Besides, the inhibition with Saccharomyces cerevisiae stood at 85.1%.
As for `CCc1ccc(/C=N/NC(=O)Nc2sc3c(c2C#N)CCCC3)cc1`, the half-maximal inhibitory concentration (IC50) in series [1] worked out at 25.4 µM. In the series with Saccharomyces cerevisiae, the inhibition was found to be 89.5%.
Consider `Cc1cc(/C=N/NC(=O)Nc2sc3c(c2C#N)CCCC3)cc(C)c1O`, for which the inhibition in the series on Saccharomyces cerevisiae amounted to 35.4%.
Regarding `N#Cc1c(NC(=O)N/N=C/c2ccccc2)sc2c1CCCC2`, the inhibition in the series with Saccharomyces cerevisiae was determined as 31.4%.
For `C[C@H]1O[C@H](O[C@H]2[C@H](O)[C@@H](O)[C@@H](O[C@H]3[C@H](O)[C@@H](O)C(O)O[C@@H]3CO)O[C@@H]2CO)[C@H](O)[C@@H](O)[C@@H]1N[C@H]1C=C(CO)[C@@H](O)[C@H](O)[C@H]1O` (stereo partly drawn) [ACARBOSE], in series [1], the IC50 amounted to 440 µM. In addition, in the series filed under Rattus norvegicus [4], the outcome was Active.
As for `N#Cc1c(NC(=O)N/N=C/c2cccc(O)c2O)sc2c1CCCC2`, the half-inhibitory concentration (IC50) in series [1] came out at 29.5 µM. The inhibition in the series with Saccharomyces cerevisiae amounted to 68.2%.
For the compound `COc1cc(/C=N/NC(=O)Nc2sc3c(c2C#N)CCCC3)cc(OC)c1O`, the inhibition in the series with Saccharomyces cerevisiae is 0.7%.
Consider `N#Cc1c(NC(=O)NCc2ccccc2)sc2c1CCCC2`, for which, in series [1], the IC50 amounted to 63.1 µM.
Turning to `N#Cc1c(NC(=O)N/N=C/c2ccc3c(c2)OC=CO3)sc2c1CCCC2`, the inhibition with Saccharomyces cerevisiae came out at 35.7%.

Values taken from ChEMBL document CHEMBL5030554, “Design, synthesis and biological evaluation of novel (E)-2-benzylidene-N-(3-cyano-4,5,6,7-tetrahydrobenzo[b]thiophen-2-yl)hydrazine-1-carboxamide derivatives as α-glucosidase inhibitors” (Bioorg Med Chem Lett, 2021).
